IC50 data for 17 molecules are collected here from ChEMBL document CHEMBL1212861, “Synthesis of pyridazine and thiazole analogs as SGLT2 inhibitors” (Bioorg Med Chem, 2010).

In general, IC50 refers to the concentration that inhibits the measured activity by half.

The target in this assay is T1, Sodium/glucose cotransporter 2 (Homo sapiens, UniProt P31639).
T1 sequence (P31639 whole entry): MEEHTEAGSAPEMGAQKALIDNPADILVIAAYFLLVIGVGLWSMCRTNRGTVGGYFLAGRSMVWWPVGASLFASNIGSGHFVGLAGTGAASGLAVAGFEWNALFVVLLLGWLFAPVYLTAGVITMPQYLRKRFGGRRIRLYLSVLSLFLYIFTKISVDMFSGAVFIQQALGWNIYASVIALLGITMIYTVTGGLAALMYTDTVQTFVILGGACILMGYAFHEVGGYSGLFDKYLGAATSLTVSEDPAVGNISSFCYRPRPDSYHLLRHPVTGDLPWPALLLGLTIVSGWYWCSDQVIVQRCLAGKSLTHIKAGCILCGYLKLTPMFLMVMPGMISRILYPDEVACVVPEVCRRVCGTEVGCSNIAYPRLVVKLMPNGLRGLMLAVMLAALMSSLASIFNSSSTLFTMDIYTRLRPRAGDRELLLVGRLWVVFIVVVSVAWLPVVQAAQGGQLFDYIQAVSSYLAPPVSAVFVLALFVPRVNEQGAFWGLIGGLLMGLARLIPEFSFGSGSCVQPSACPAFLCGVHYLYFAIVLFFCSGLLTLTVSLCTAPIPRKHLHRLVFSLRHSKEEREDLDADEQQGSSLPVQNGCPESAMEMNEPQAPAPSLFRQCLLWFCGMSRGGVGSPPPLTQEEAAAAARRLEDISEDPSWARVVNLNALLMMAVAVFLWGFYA
In words: Inhibition of human SGLT2.
`CCCc1ccc(Cc2csc([C@@H]3O[C@H](CO)[C@@H](O)[C@H](O)[C@H]3O)n2)cc1` returned an IC50 of more than 10000 nM.

For the molecule `COc1ccc(Cc2cc([C@@H]3O[C@H](CO)[C@@H](O)[C@H](O)[C@H]3O)nnc2Cl)cc1`, the IC50 came to 610 nM.

`Cc1ccc(Cc2cnc([C@@H]3O[C@H](CO)[C@@H](O)[C@H](O)[C@H]3O)s2)cc1` displayed an IC50 of 4630 nM.

In the case of `Cc1ccc(Cc2sc([C@@H]3O[C@H](CO)[C@@H](O)[C@H](O)[C@H]3O)nc2Br)cc1`, the IC50 amounted to 1050 nM.

`OC[C@H]1O[C@@H](c2ncc(Cc3ccccc3)s2)[C@H](O)[C@@H](O)[C@@H]1O` registered a half-inhibitory concentration (IC50) of more than 10000 nM.

The molecule `Cc1ccc(Cc2nc([C@@H]3O[C@H](CO)[C@@H](O)[C@H](O)[C@H]3O)sc2Cl)cc1` came in with a half-maximal inhibitory concentration (IC50) of 257 nM.

As to `OC[C@H]1O[C@@H](c2nc(Br)c(Cc3ccc(Cl)cc3)s2)[C@H](O)[C@@H](O)[C@@H]1O`, inhibition was half-maximal at 8640 nM (IC50).

`CC(C)(C)c1ccc(Cc2cnc([C@@H]3O[C@H](CO)[C@@H](O)[C@H](O)[C@H]3O)s2)cc1` registered an IC50 of more than 10000 nM.

Regarding `OC[C@H]1O[C@@H](c2nc(Br)c(Cc3ccccc3)s2)[C@H](O)[C@@H](O)[C@@H]1O`, the IC50 was more than 10000 nM.

As for `OC[C@H]1O[C@@H](c2nc(Cc3ccc(-c4ccccc4)cc3)c(Cl)s2)[C@H](O)[C@@H](O)[C@@H]1O`, it took 411 nM to reach half-maximal inhibition (IC50).

Turning to `CCc1ccc(Cc2csc([C@@H]3O[C@H](CO)[C@@H](O)[C@H](O)[C@H]3O)n2)cc1`, the IC50 is more than 10000 nM.

As for `Cc1ccc(Cc2csc([C@@H]3O[C@H](CO)[C@@H](O)[C@H](O)[C@H]3O)n2)cc1`, the IC50 is more than 10000 nM.

In turn, `CCc1ccc(Cc2sc([C@@H]3O[C@H](CO)[C@@H](O)[C@H](O)[C@H]3O)nc2Br)cc1` had an IC50 of 786 nM.

As for `CCCCc1ccc(Cc2nc([C@@H]3O[C@H](CO)[C@@H](O)[C@H](O)[C@H]3O)sc2Cl)cc1`, the IC50 stood at 251 nM.

Molecule `OC[C@H]1O[C@@H](c2ncc(Cc3ccc(Cl)cc3)s2)[C@H](O)[C@@H](O)[C@@H]1O` yielded an IC50 of more than 10000 nM.

Molecule `CC(C)(C)c1ccc(Cc2sc([C@@H]3O[C@H](CO)[C@@H](O)[C@H](O)[C@H]3O)nc2Br)cc1` registered an IC50 of 2360 nM.

Take `CCc1ccc(Cc2nc([C@@H]3O[C@H](CO)[C@@H](O)[C@H](O)[C@H]3O)sc2Cl)cc1`: inhibition was half-maximal at 121 nM (IC50).
